Source: patent US7053070B2, “Pyrido[2,3-d]pyrimidine-2,7-diamine kinase inhibitors” (Warner-Lambert Company, priority 2000, dated 2006)
pIC50: −log10 of the molar value.

Experiments:
[1] = molecular target: T1, FGF-1 (flg) receptor tyrosine kinase (FGFr) (Homo sapiens, UniProt P11362); test: FGF Receptor Tyrosine Kinase Assay; format: biochemical; conditions: glutamate-tyrosine co-polymer substrate; for inhibition at 50 µM: at 50 μM compound, read-out: Inhibition of Tyrosine Kinases: % Inhibition at 50 μM FGFr; for pIC50: read-out: Inhibition of Tyrosine Kinases: IC50 in parenthesis FGFr
T1 construct: amplify a fragment of DNA that codes for the intracellular tyrosine kinase domain; made in house; host or cells: SF9 insect cells (baculovirus); crude cell lysate used
Text: (§1) PDGF and FGF Receptor Tyrosine Kinase Assays
(§2) Full-length cDNAs for the mouse PDGF-β and human FGF-1 (flg) receptor tyrosine kinases are obtained from J. Escobedo and prepared as described in J. Biol. Chem. 1991; 262:1482-1487. PCR primers are designed to amplify a fragment of DNA that codes for the intracellular tyrosine kinase domain. The fragment is inserted into a baculovirus vector, cotransfected with AcMNPV DNA, and the recombinant virus isolated. SF9 insect cells are infected with the virus to overexpress the protein, and the cell lysate is used for the assay. Assays are performed in 96-well plates (100 μL/incubation/well), and conditions are optimized to measure the incorporation of ^32P from γ^32P-ATP into a glutamate-tyrosine co-polymer substrate. Briefly, to each well is added 82.5 μL of incubation buffer containing 25 mM Hepes (pH 7.0), 150 mM NaCl, 0.1% Triton X-100, 0.2 mM PMSF, 0.2 mM Na3VO4, 10 mM MnCl2, and 750 μg/mL of Poly (4:1) glutamate-tyrosine followed by 2.5 μL of inhibitor and 5 μL of enzyme lysate (7.5 μg/μL FGF-TK or 6.0 μg/μL PDGF-TK) to initiate the reaction. Following a 10-minute incubation at 25° C. […] of γ^32P-ATP (0.4 μCi plus 50 μM ATP) is added to each well, and samples are incubated for an additional 10 minutes at 25° C. The reaction is terminated by the addition of 100 μL of 30% trichloroacetic acid (TCA) containing 20 mM sodium pyrophosphate and precipitation of material onto glass fiber mats (Wallac). Filters are washed 3 times with 15% TCA containing 100 mM sodium pyrophosphate, and the radioactivity retained on the filters counted in a Wallac 1250 Betaplate reader. Nonspecific activity is defined as radioactivity retained on the filters following incubation of samples with buffer alone (no enzyme). Specific enzymatic activity (enzyme plus buffer) is defined as total activity minus nonspecific activity.

[2] = molecular target: T2, PDGF-β receptor tyrosine kinase (PDGFr) (Mus musculus, UniProt P05622); test: PDGF Receptor Tyrosine Kinase Assay; format: biochemical; conditions: glutamate-tyrosine co-polymer substrate; for inhibition at 50 µM: at 50 μM compound, read-out: Inhibition of Tyrosine Kinases: % Inhibition at 50 μM PDGFr; for pIC50: read-out: Inhibition of Tyrosine Kinases: IC50 in parenthesis PDGFr
T2 construct: amplify a fragment of DNA that codes for the intracellular tyrosine kinase domain; made in house; host or cells: SF9 insect cells (baculovirus); crude cell lysate used
Text: as §1, §2

cdk4/cyclinD = cdk4/cyclinD (Homo sapiens, UniProt P11802); test: Cyclin Dependent Kinase 4 (cdk-4) Assay, 32P incorporation, filter plate; format: biochemical; conditions: retinoblastoma substrate, 25 μM ATP, 25° C., 15 minutes; read-out: Inhibition of Cdks: IC50 Cdk4D
Method: Cyclin Dependent Kinase 4 (cdk-4) Assay
Enzyme assays for IC50 determinations and kinetic evaluation are performed in 96-well filter plates (Millipore MADVN6550). The total volume is 0.1 mL containing a final concentration of 20 mM TRIS (tris[hydroxymethyl]aminomethane), at pH 7.4, 50 mM NaCl, 1 mM dithiothreitol, 10 mM MgCl2, 25 μM ATP containing 0.25 μCi of [^32P]ATP, 20 ng of cdk4, 1 μg of retinoblastoma, and appropriate dilutions of a compound of the present invention. All components except the ATP are added to the wells, and the plate is placed on a plate mixer for 2 minutes. The reaction is started by adding [^32P]ATP, and the plate is incubated at 25° C. for 15 minutes. The reaction is terminated by addition of 0.1 mL of 20% trichloroacetic acid (TCA). The plate is kept at 4° C. for at least 1 hour to allow the substrate to precipitate. The wells are then washed 5 times with 0.2 mL of 10% TCA and ^32P incorporation is determined with a beta plate counter (Wallac Inc., Gaithersburg, Md.).

cdk2/cyclinE = cdk2/cyclinE (Homo sapiens, UniProt P24941); test: Cyclin dependent kinase 2 assay (cdk2/cyclinE), 32P incorporation, filter plate; format: biochemical; conditions: retinoblastoma substrate, 12 mM ATP, 25° C., 15 minutes; read-out: Inhibition of Cdks: IC50 Cdk2/E
Method: (§3) Cyclin Dependent Kinase 1 and 2 Assays (cdk1/cyclinB, cdk2/cyclinA, cdk2/cyclinE)
(§4) Enzyme assays for IC50 determinations and kinetic evaluation are performed in a 96-well filter plate (Millipore MADVN6550) in a total volume of 0.1 mL of 20 mM TRIS (tris[hydroxymethyl]aminomethane), at pH 7.4, 50 mM NaCl, 1 mM dithiothreitol, 10 mM MgCl2, […] containing 0.25 μCi of [^32P]ATP, 20 ng of enzyme (either cdk1/B, cdk2/A, or cdk2E), 1 μg retinoblastoma and appropriate dilutions of the particular invention compound. All components except the ATP are added to the wells, and the plate is placed on a plate mixer for 2 minutes. The reaction is begun by addition of [^32P]ATP, and the plate is incubated at 25° C. for 15 minutes. The reaction is terminated by addition of 0.1 mL of 20% TCA. The plate is kept at 4° C. for at least 1 hour to allow the substrate to precipitate. The wells are then washed 5 times with 0.2 mL of 10% TCA and ^32P incorporation determined with a beta plate counter (Wallac Inc., Gaithersburg, Md.).

cdk1/cyclinB = cdk1/cyclinB (Homo sapiens, UniProt P06493); test: Cyclin dependent kinase 1 assay (cdk1/cyclinB), 32P incorporation, filter plate; format: biochemical; conditions: retinoblastoma substrate, 12 mM ATP, 25° C., 15 minutes; read-out: Inhibition of Cdks: IC50 Cdk1/B
Method: as §3, §4

cdk2/cyclinA = cdk2/cyclinA (Homo sapiens, UniProt P24941); test: Cyclin dependent kinase 2 assay (cdk2/cyclinA), 32P incorporation, filter plate; format: biochemical; conditions: retinoblastoma substrate, 12 mM ATP, 25° C., 15 minutes; read-out: Inhibition of Cdks: IC50 Cdk2/A
Method: as §3, §4

cdk1/cyclinB, sequence (P06493 whole entry, species assumed): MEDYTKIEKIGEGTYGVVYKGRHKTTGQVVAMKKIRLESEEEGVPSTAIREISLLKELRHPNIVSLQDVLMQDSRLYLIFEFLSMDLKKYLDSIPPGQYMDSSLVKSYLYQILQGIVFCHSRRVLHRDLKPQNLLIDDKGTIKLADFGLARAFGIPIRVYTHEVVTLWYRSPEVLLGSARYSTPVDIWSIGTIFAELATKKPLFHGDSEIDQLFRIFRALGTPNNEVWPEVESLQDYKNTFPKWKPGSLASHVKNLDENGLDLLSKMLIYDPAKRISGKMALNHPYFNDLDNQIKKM
cdk1/cyclinB, sequence (P14635 whole entry partner, species assumed): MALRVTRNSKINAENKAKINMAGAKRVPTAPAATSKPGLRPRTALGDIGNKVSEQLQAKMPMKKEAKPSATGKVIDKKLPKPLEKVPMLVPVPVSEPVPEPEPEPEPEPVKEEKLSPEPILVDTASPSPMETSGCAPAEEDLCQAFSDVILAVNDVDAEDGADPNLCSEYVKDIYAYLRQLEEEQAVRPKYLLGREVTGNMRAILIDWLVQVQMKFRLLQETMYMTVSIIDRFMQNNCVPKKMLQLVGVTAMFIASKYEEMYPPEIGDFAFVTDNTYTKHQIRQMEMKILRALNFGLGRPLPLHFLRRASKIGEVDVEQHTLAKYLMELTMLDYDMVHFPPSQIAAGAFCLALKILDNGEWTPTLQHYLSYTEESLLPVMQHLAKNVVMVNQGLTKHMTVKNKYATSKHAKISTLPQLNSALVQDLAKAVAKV
T1 sequence (P11362 478-767 limits assumed): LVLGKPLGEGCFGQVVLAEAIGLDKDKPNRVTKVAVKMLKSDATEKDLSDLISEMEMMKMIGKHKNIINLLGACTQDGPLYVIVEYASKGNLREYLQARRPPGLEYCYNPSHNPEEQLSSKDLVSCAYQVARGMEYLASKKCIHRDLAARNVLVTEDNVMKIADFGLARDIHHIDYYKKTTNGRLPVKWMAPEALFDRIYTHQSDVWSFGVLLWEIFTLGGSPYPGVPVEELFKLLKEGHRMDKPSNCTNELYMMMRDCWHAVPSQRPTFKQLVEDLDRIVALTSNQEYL
T2 sequence (P05622 599-961 limits assumed): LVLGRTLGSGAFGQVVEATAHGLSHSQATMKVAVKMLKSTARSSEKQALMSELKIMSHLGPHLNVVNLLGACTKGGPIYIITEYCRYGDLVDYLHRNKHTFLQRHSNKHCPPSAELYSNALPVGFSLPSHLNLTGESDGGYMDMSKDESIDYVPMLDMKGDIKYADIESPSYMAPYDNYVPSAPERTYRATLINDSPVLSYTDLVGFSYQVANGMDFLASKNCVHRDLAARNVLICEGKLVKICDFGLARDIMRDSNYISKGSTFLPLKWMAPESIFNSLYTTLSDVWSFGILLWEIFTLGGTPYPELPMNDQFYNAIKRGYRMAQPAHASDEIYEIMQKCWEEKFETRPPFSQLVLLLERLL
cdk4/cyclinD, sequence (P11802 whole entry, species assumed): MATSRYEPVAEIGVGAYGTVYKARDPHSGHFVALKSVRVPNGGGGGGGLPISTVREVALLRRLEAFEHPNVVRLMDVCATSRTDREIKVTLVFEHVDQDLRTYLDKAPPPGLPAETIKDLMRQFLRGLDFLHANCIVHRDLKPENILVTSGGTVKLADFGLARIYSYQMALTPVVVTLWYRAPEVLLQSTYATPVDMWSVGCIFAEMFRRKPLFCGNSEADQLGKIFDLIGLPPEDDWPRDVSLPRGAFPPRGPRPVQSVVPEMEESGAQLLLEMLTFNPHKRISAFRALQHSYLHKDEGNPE
cdk4/cyclinD, sequence (P24385 whole entry partner, species assumed): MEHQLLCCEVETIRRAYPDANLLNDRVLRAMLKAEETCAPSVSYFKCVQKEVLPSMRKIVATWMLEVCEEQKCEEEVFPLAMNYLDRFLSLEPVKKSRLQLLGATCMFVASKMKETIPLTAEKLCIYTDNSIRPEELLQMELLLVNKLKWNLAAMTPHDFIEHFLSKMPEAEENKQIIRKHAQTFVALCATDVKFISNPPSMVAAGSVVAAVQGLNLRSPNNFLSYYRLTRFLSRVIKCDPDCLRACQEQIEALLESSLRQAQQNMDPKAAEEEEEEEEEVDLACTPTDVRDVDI

SMILES | inhibition at 50 µM [1] [%] | inhibition at 50 µM [2] [%] | pIC50 [2] | pIC50 (cdk4/cyclinD) | pIC50 (cdk2/cyclinE) | pIC50 (cdk1/cyclinB) | pIC50 (cdk2/cyclinA) | pIC50 [1] | melting point
CC(C)(C)NC(=O)Nc1ccc2cnc(Nc3ccc(N4CCNCC4)cc3)nc2n1 [Compound 1, 1-tert-Butyl-3-[2-(4-piperazin-1-yl-phenylamino)-pyrido[2,3-d]pyrimidin-7-yl]-urea] | 93.7 | 94.4 | 6.23 | 8.22 | 6.89 | 6.66 | 7.22 | – | –
O=C(Nc1ccc2cnc(Nc3ccc(N4CCNCC4)cc3)nc2n1)NC1CCCCC1 [Compound 9, 1-Cyclohexyl-3-[2-(4-piperazin-1-yl-phenylamino)-pyrido[2,3-d]pyrimidin-7-yl]-urea] | 89.8 | – | – | 8.30 | 7.70 | 7.57 | 8.00 | – | –
O=C(Nc1nc2nc(Nc3ccc(N4CCNCC4)cc3)ncc2cc1F)NC1CCCCC1 [Compound 11, 1-Cyclohexyl-3-[6-fluoro-2-(4-piperazin-1-yl-phenylamino)-pyrido[2,3-d]pyrimidin-7-yl]-urea] | – | – | 6.88 | 7.96 | 6.90 | 6.80 | 7.04 | 6.55 | –
CC(C)(C)NC(=O)Nc1ccc2cnc(Nc3ccccc3)nc2n1 [Compound 45, 1-tert-Butyl-3-(2-phenylamino-pyrido[2,3-d]pyrimidin-7-yl)-urea] | 67.4 | 21.9 | – | 7.35 | 6.96 | 6.26 | 7.27 | – | 227 °C (dec.)
Cc1cc(Nc2ncc3ccc(NC(=O)NC(C)(C)C)nc3n2)ccc1F [Compound 46, 1-tert-Butyl-3-[2-(4-fluoro-3-methyl-phenylamino)-pyrido[2,3-d]pyrimidin-7-yl]-urea] | 19.5 | 17.5 | – | < 5.30 | 6.52 | 7.12 | – | – | 230 °C (dec.)
Cc1cc(Nc2ncc3ccc(NC(=O)Nc4ccc(Cl)cc4)nc3n2)ccc1F [Compound 47, 1-(4-Chloro-phenyl)-3-[2-(4-fluoro-3-methyl-phenylamino)-pyrido[2,3-d]pyrimidin-7-yl]-urea] | 10.5 | – | – | < 5.30 | < 5.30 | < 5.30 | < 5.30 | – | > 250 °C
O=C(Nc1nc2nc(Nc3ccc(N4CCNCC4)cc3)ncc2cc1Br)NC1CCCCC1 [Compound 55, 1-[6-Bromo-2-(4-piperazin-1-yl-phenylamino)-pyrido[2,3-d]pyrimidin-7-yl]-3-cyclohexyl-urea] | – | – | 7.48 | 6.52 | < 5.30 | < 5.30 | < 5.30 | 6.82 | 195 °C (dec.)
CC(C)(C)OC(=O)N1CCN(c2ccc(Nc3ncc4ccc(NC(=O)NC5CCCCC5)nc4n3)cc2)CC1 [Compound 80] | 18.6 | – | – | 6.34 | 6.64 | 6.34 | 7.04 | – | 241 °C (dec.)
O=C(NCCO)Nc1ccc2cnc(Nc3ccc(F)cc3)nc2n1 [Compound 97, 1-[2-(4-Fluoro-phenylamino)-pyrido[2,3-d]pyrimidin-7-yl]-3-(2-hydroxy-ethyl)-urea] | – | – | – | < 5.30 | 6.46 | 6.06 | 6.56 | – | 238 to 240 °C
NCCNC(=O)Nc1ccc2cnc(Nc3ccc(F)cc3)nc2n1 [Compound 98, 1-(2-Amino-ethyl)-3-[2-(4-fluoro-phenylamino)-pyrido[2,3-d]pyrimidin-7-yl]-urea] | – | – | – | 5.98 | 6.85 | 6.35 | 6.80 | – | 217 to 220 °C
CN(C)CCNC(=O)Nc1ccc2cnc(Nc3ccc(F)cc3)nc2n1 [Compound 99, 1-(2-Dimethylamino-ethyl)-3-[2-(4-fluoro-phenylamino)-pyrido[2,3-d]pyrimidin-7-yl]-urea] | – | – | – | < 5.30 | 6.39 | 5.74 | 5.99 | – | 251 to 255 °C
CC(=O)N1CCN(c2ccc(Nc3ncc4ccc(NC(=O)NCCCN5CCOCC5)nc4n3)cc2)CC1 [Compound 103, 1-{2-[4-(4-Acetyl-piperazin-1-yl)-phenylamino]-pyrido[2,3-d]pyrimidin-7-yl}-3-(3-morpholin-4-yl-propyl)-urea] | – | – | – | < 5.30 | < 5.30 | < 5.30 | < 5.30 | – | 221 to 225 °C (dec.)
C[C@@H]1CN(c2ccc(Nc3ncc4cc(Cl)c(NC(=O)NC(C)(C)C)nc4n3)cc2)C[C@H](C)N1 [Compound 104, 1-tert-Butyl-3-{6-chloro-2-[4-(cis-3,5-dimethyl-piperazin-1-yl)-phenylamino]-pyrido[2,3-d]pyrimidin-7-yl}-urea] | – | – | – | 6.73 | < 5.30 | < 5.30 | < 5.30 | – | 205 °C (dec.)
CCCNC(=O)Nc1cc(C)c2cnc(Nc3ccc(N4CCNCC4)cc3)nc2n1 [Compound 111, 1-[5-Methyl-2-(4-piperazin-1-yl-phenylamino)-pyrido[2,3-d]pyrimidin-7-yl]-3-propyl-urea] | – | – | – | < 5.30 | < 5.30 | < 5.30 | < 5.30 | – | 223 to 225 °C
Cc1c(F)c(NC(=O)NC(C)C)nc2nc(Nc3ccc(N4CCNCC4)cc3)ncc12 [Compound 114, 1-[6-Fluoro-5-methyl-2-(4-piperazin-1-yl-phenylamino)-pyrido[2,3-d]pyrimidin-7-yl]-3-isopropyl-urea] | – | – | – | < 5.30 | < 5.30 | < 5.30 | < 5.30 | – | 208 °C (dec.)
Cc1cc2cnc(Nc3ccc(N4C[C@@H](C)N[C@@H](C)C4)cc3)nc2nc1NC(=O)NC(C)(C)C [Compound 117, 1-tert-Butyl-3-{2-[4(cis-3,5-dimethyl-piperazin-1-yl)-phenylamino]-6-methyl-pyrido[2,3-d]pyrimidin-7-yl}-urea] | – | – | 7.09 | 7.12 | 5.40 | < 5.30 | < 5.30 | 7.21 | –
